Data as given in ChEMBL document CHEMBL3045401, “(Naphthalen-1-yloxy)-acetic acid benzylidene/(1-phenyl-ethylidene)-hydrazide derivatives: synthesis, antimicrobial evaluation, and QSAR studies” (Med Chem Res, 2012).
Values after ≈ are worked out from the molar mass of the structure shown.

Key:
[1] = tested on: Human immunodeficiency virus 2; test: Antiviral activity against Human immunodeficiency virus type 2 (ISOLATE ROD) infected human MT4 cells assessed as inhibition of virus-induced cytopathic effect after 4 days by MTT assay; format: functional, organism-based; conditions: Human immunodeficiency virus 2, ISOLATE ROD, MT4, 96 h
Human alphaherpesvirus 3 [2] = test: Antiviral activity against thymidine kinase-deficient Human herpesvirus 3 infected in HEL cells assessed as inhibition of viral plaque formation; format: functional, organism-based; conditions: Human alphaherpesvirus 3, HEL
Human betaherpesvirus 5 [3] = test: Antiviral activity against Human herpesvirus 5 Davis infected human HEL cells assessed as reduction in the virus plaque formation; format: functional, organism-based; conditions: Human betaherpesvirus 5, Davis
[4] = Cytotoxicity against Homo sapiens (human) MT4 cells after 4 days by MTT assay; format: cell-based
Human alphaherpesvirus 3 [5] = test: Antiviral activity against thymidine kinase-positive Human herpesvirus 3 infected in HEL cells assessed as inhibition of viral plaque formation; format: functional, organism-based; conditions: Human alphaherpesvirus 3, HEL
[6] = tested on: Human immunodeficiency virus 1; test: Antiviral activity against Human immunodeficiency virus 1 IIIB infected human MT4 cells assessed as inhibition of virus-induced cytopathic effect after 4 days by MTT assay; format: functional, organism-based; conditions: MT4, 96 h
[7] = Octanol-water partition coefficient, log P of the compound; format: physicochemical
[8] = Cytotoxicity against HEL assessed as minimum concentration required to cause morphological changes; format: cell-based; conditions: human, HEL cells
Candida albicans = test: Antimicrobial activity against Candida albicans after 2 days by serial dilution method; format: functional
Human betaherpesvirus 5 [9] = test: Antiviral activity against Human herpesvirus 5 strain AD169 infected human HEL cells assessed as reduction in the virus plaque formation; format: functional, organism-based; conditions: Human betaherpesvirus 5, AD169, HEL
Escherichia coli = test: Antimicrobial activity against Escherichia coli after 24 hr by serial dilution method; format: functional
Aspergillus niger = test: Antimicrobial activity against Aspergillus niger after 7 days by serial dilution method; format: functional
[10] = Cytotoxicity against HEL; format: cell-based; conditions: human, HEL cells
Staphylococcus aureus = test: Antimicrobial activity against Staphylococcus aureus after 24 hr by serial dilution method; format: functional
Bacillus subtilis = test: Antimicrobial activity against Bacillus subtilis after 24 hr by serial dilution method; format: functional

| Structure (SMILES) | EC50 [1] | EC50 (Human alphaherpesvirus 3 [2]) | EC50 (Human betaherpesvirus 5 [3]) | CC50 at 96 h [4] | EC50 (Human alphaherpesvirus 3 [5]) | EC50 [6] | logP [7] | MCC [8] | -logMIC (Candida albicans) | EC50 (Human betaherpesvirus 5 [9]) | -logMIC (Escherichia coli) | -logMIC (Aspergillus niger) | CC50 [10] | -logMIC (Staphylococcus aureus) | -logMIC (Bacillus subtilis) |
| --- | --- | --- | --- | --- | --- | --- | --- | --- | --- | --- | --- | --- | --- | --- | --- |
| O=C(COc1cccc2ccccc12)N/N=C/c1cccc([N+](=O)[O-])c1 | > 12.1 µg/mL | > 4 µg/mL | > 20 µg/mL | 12.1 µg/mL (≈ 34.6 µM) | > 4 µg/mL | > 12.1 µg/mL | 3.97 | ≥ 20 µg/mL | 1.45 | > 4 µg/mL | 1.45 | 0.84 | 61.2 µg/mL (≈ 175 µM) | 1.14 | 1.14 |
| O=C(COc1cccc2ccccc12)N/N=C/c1ccccc1O | > 5.19 µg/mL | > 0.8 µg/mL | > 4 µg/mL | 5.19 µg/mL (≈ 16.2 µM) | > 0.8 µg/mL | > 5.19 µg/mL | 3.73 | 20 µg/mL | 1.41 | > 4 µg/mL | 1.41 | 1.11 | 3.57 µg/mL (≈ 11.1 µM) | 1.71 | 1.11 |
| O=C(COc1cccc2ccccc12)N/N=C/c1ccc(Cl)cc1 | > 87.6 µg/mL | > 100 µg/mL | > 20 µg/mL | 87.6 µg/mL (≈ 259 µM) | > 100 µg/mL | > 87.6 µg/mL | 4.54 | 100 µg/mL | 0.53 | > 20 µg/mL | 0.53 | 0.53 | 100 µg/mL (≈ 295 µM) | 1.43 | 0.53 |
| O=C(COc1cccc2ccccc12)N/N=C/c1cccc(O)c1 | > 32.6 µg/mL | 16.2 µg/mL (≈ 50.6 µM) | > 20 µg/mL | 32.6 µg/mL (≈ 102 µM) | 9.2 µg/mL (≈ 28.7 µM) | > 32.6 µg/mL | 3.73 | 100 µg/mL | 1.41 | > 20 µg/mL | 1.41 | 1.41 | 62.7 µg/mL (≈ 196 µM) | 1.71 | 1.11 |
| Cc1ccc(/C=N/NC(=O)COc2cccc3ccccc23)cc1 | > 83.9 µg/mL | > 20 µg/mL | > 4 µg/mL | 83.9 µg/mL (≈ 263 µM) | > 20 µg/mL | > 83.9 µg/mL | 4.49 | 20 µg/mL | 0.52 | > 4 µg/mL | 0.52 | 0.82 | 80.1 µg/mL (≈ 252 µM) | 1.12 | 0.52 |
| CCn1cc(C(=O)O)c(=O)c2cc(F)c(N3CCNCC3)cc21 [NORFLOXACIN] |  |  |  |  |  |  |  |  |  |  | 2.61 |  |  | 2.61 | 2.61 |
| O=C(COc1cccc2ccccc12)N/N=C/c1cccc(Br)c1 | > 87.4 µg/mL | > 20 µg/mL | > 20 µg/mL | 87.4 µg/mL (≈ 228 µM) | > 20 µg/mL | > 87.4 µg/mL | 4.81 | 100 µg/mL | 0.58 | > 20 µg/mL | 0.58 | 0.58 | 48.6 µg/mL (≈ 127 µM) | 1.79 | 0.58 |
| O=C(COc1cccc2ccccc12)N/N=C/c1ccc(O)cc1 | > 26.5 µg/mL | 10.5 µg/mL (≈ 32.8 µM) | > 4 µg/mL | 26.5 µg/mL (≈ 82.7 µM) | 9.6 µg/mL (≈ 30 µM) | > 26.5 µg/mL | 3.73 | 20 µg/mL | 1.71 | > 4 µg/mL | 1.41 | 1.11 | 60.6 µg/mL (≈ 189 µM) | 1.71 | 1.11 |
| Nc1nc2c(ncn2COC(CO)CO)c(=O)[nH]1 [GANCICLOVIR] |  |  | 1.79 µg/mL (≈ 7.01 µM) |  |  |  |  | > 100 µg/mL |  | 2.68 µg/mL (≈ 10.5 µM) |  |  | 60.5 µg/mL (≈ 237 µM) |  |  |
| C/C(=N\NC(=O)COc1cccc2ccccc12)c1cccc([N+](=O)[O-])c1 | > 12.1 µg/mL | > 4 µg/mL | > 4 µg/mL | 12.1 µg/mL (≈ 33.2 µM) | > 4 µg/mL | > 12.1 µg/mL | 3.37 | 20 µg/mL | 1.76 | > 4 µg/mL | 1.46 | 1.46 | 10.5 µg/mL (≈ 28.9 µM) | 1.76 | 1.16 |
| NNC(=O)COc1ccc2ccccc2c1 [2-NAPHTHOXY ACETIC ACID HYDRAZIDE] |  |  |  |  |  |  |  |  | 0.64 |  | 0.94 | 0.64 |  | 0.94 | 0.64 |
| O=c1[nH]c(=O)n([C@H]2C[C@H](O)[C@@H](CO)O2)cc1/C=C/Br [BRIVUDINE] |  | 20 µg/mL (≈ 60 µM) |  |  | 0.0093 µg/mL (≈ 0.0279 µM) |  |  | > 100 µg/mL |  |  |  |  | 173 µg/mL (≈ 519 µM) |  |  |
| OC(Cn1cncn1)(Cn1cncn1)c1ccc(F)cc1F [FLUCONAZOLE] |  |  |  |  |  |  |  |  | 2.64 |  |  | 2.64 |  |  |  |
| Nc1ccn(C[C@@H](CO)OCP(=O)(O)O)c(=O)n1.O.O [CIDOFOVIR] |  |  | 0.3 µg/mL |  |  |  |  | > 100 µg/mL |  | 0.8 µg/mL |  |  | 35.4 µg/mL |  |  |
| Cc1ccnc2c1NC(=O)c1cccnc1N2C1CC1 [NEVIRAPINE] | > 4 µg/mL |  |  | > 4 µg/mL |  |  |  |  |  |  |  |  |  |  |  |
| Nc1nc2c(ncn2COCCO)c(=O)[nH]1 [ACYCLOVIR] |  | 23 µg/mL (≈ 102 µM) |  |  | 0.44 µg/mL (≈ 1.95 µM) |  |  | > 100 µg/mL |  |  |  |  | 120 µg/mL (≈ 533 µM) |  |  |
| Cc1cn([C@H]2C[C@H](N=[N+]=[N-])[C@@H](CO)O2)c(=O)[nH]c1=O [ZIDOVUDINE] |  |  |  | > 25 µg/mL |  | 0.002 µg/mL (≈ 0.00748 µM) |  |  |  |  |  |  |  |  |  |
